Reference: ChEMBL document CHEMBL3352575, “Synthesis, in vitro and in vivo antitumor activity of pyrazole-fused 23-hydroxybetulinic acid derivatives” (Bioorg Med Chem Lett, 2015)

Columns and labels:
H22 [1] = assay: Antitumor activity against […] H22 cells […] in ICR mouse assessed as tumor growth inhibition at 30 mg/kg, ip administered 7 days post inoculation measured at day 25 of tumor transplantation; assay type: functional; settings: route intraperitoneal
B16 [2] = assay: Antitumor activity against mouse B16 cells allografted in ICR mouse assessed as tumor growth inhibition at 30 mg/kg, ip administered 7 days post inoculation measured at day 25 of tumor transplantation; assay type: functional; settings: route intraperitoneal
B16 [3] = assay: Antitumor activity against mouse B16 cells allografted in ICR mouse assessed as tumor growth inhibition at 30 mg/kg, iv administered 7 days post inoculation measured at day 25 of tumor transplantation; assay type: functional
[4] = Antiproliferative activity against human Bel7402 cells after 72 hrs by MTT assay; assay type: functional, cell-based; settings: Bel-7402, 72 h
[5] = Antiproliferative activity against human HL60 cells after 72 hrs by MTT assay; assay type: functional, cell-based; settings: HL-60, 72 h
HeLa = assay: Antiproliferative activity against human HeLa cells after 72 hrs by MTT assay; assay type: functional, cell-based
B16 [6] = assay: Antiproliferative activity against mouse B16 cells after 72 hrs by MTT assay; assay type: functional, cell-based; settings: B16, 72 h
[7] = Antiproliferative activity against human SF763 cells after 72 hrs by MTT assay; assay type: functional, cell-based; settings: SF763, 72 h
H22 [8] = assay: Antitumor activity against human H22 cells xenografted in ICR mouse assessed as tumor growth inhibition at 30 mg/kg, iv administered 7 days post inoculation measured at day 25 of tumor transplantation; settings: read-out: INH

Row | SMILES | inhibition in vivo at 30 mg/kg (H22 [1]) | inhibition in vivo at 30 mg/kg (B16 [2]) | inhibition in vivo at 30 mg/kg (B16 [3]) | IC50 [4] | IC50 [5] | IC50 (HeLa) | IC50 (B16 [6]) | IC50 [7] | inhibition in vivo at 30 mg/kg (H22 [8])
1 | C=C(C)[C@@H]1CC[C@]2(C(=O)O)CC[C@]3(C)[C@H](CC[C@@H]4[C@@]5(C)CC[C@H](O)[C@@](C)(CO)[C@@H]5CC[C@]43C)[C@@H]12 | 27.8% | 32.4% |  |  |  |  |  |  | 
2 | O=c1[nH]cc(F)c(=O)[nH]1 [FLUOROURACIL] |  |  | 70.3% | 11.8 µM | 10.5 µM | 9.09 µM | 10.5 µM | 9.34 µM | 
3 | C=C(C)[C@@H]1CC[C@]2(C(=O)NCCN)CC[C@]3(C)[C@H](CC[C@@H]4[C@@]5(C)Cc6c[nH]nc6[C@@](C)(COC(C)=O)[C@@H]5CC[C@]43C)[C@@H]12 | 51.2% | 58.9% |  | 8.12 µM | 8.04 µM | 8.97 µM | 5.58 µM | 6.13 µM | 
4 | O=P1(N(CCCl)CCCl)NCCCO1 (stereo unspecified) [CYCLOPHOSPHAMIDE ANHYDROUS] |  |  |  |  |  |  |  |  | 53.7%
